In patent US20060116389A1, “Antibacterial oxazolidinones” (ASTRA ZENECA AB, priority 2002, published 2006):
≈ marks a conversion by molar mass, not a printed value.

How the values were obtained:
Format in all cases: cell-based
[1] = tested on: Linezolid Resistant Streptococcus pneumoniae; experiment: MIC, agar supplemented with 5% defibrinated horse blood; conditions: agar + 5% horse blood, 48 hours
Protocol: (§1) The following results were obtained on a standard in-vitro test system. The activity is described in terms of the minimum inhibitory concentration (MIC) determined by the agar-dilution technique with an inoculum size of 10^4 CFU/spot. Typically, compounds are active in the range 0.01 to 256 μg/ml.
(§2) Streptococci and enterococci were tested on agar supplemented with 5% defibrinated horse blood, an inoculum of 10^4 CFU/spot and an incubation temperature of 37° C. in an atmosphere of 5% carbon dioxide for 48 hours—blood is required for the growth of some of the test organisms. Fastidious Gram negative organisms were tested in Mueller-Hinton broth, supplemented with hemin and NAD, grown aerobically for 24 hours at 37° C., and with an innoculum of 5×10^4 CFU/well.

[2] = tested on: Enterococcus faecium; experiment: as above; conditions: agar + 5% horse blood, 10^4 CFU/spot, 37° C., 5% carbon dioxide, 48 hours
Protocol: as §1, §2

[3] = tested on: Streptococcus pneumoniae; experiment: as above; conditions: agar + 5% horse blood, 10^4 CFU/spot, 37° C., 5% carbon dioxide, 48 hours
Protocol: as §1, §2

[4] = tested on: Haemophilus influenzae; experiment: MIC, Mueller-Hinton broth supplemented with hemin and NAD; conditions: 24 hours, 37° C., 5×10^4 CFU/well
Protocol: as §1, §2

[5] = tested on: Moraxella catarrhalis; experiment: as above; conditions: 24 hours, 37° C., 5×10^4 CFU/well
Protocol: as §1, §2

[6] = tested on: Staphylococcus aureus MRQR (methicillin resistant and quinolone resistant); experiment: MIC, agar-dilution, standard in-vitro test system; conditions: 10^4 CFU/spot, 37° C., 24 hours
Protocol: as §1
(§3) Staphylococci were tested on agar, using an inoculum of 10^4 CFU/spot and an incubation temperature of 37° C. for 24 hours—standard test conditions for the expression of methicillin resistance.

[7] = tested on: Staphylococcus aureus MSQS (methicillin sensitive and quinolone sensitive); experiment: MIC, agar-dilution, standard in-vitro test system; conditions: 10^4 CFU/spot, 37° C., 24 hours
Protocol: as §1, §3

`Cn1nnc(-c2ccc(-c3ccc(N4C[C@H](CNc5ccon5)OC4=O)cc3F)cn2)n1` [Example 2] was tested, and the MIC [1] was 2 µg/mL, the MIC [2] was 0.5 µg/mL and the MIC [3] was 0.13 µg/mL. It also gave an MIC [4] of 64 µg/mL (≈ 147 µM), an MIC [5] of 0.5 µg/mL (≈ 1.15 µM) and an MIC [6] of 0.5 µg/mL (≈ 1.15 µM). The MIC [7] was 0.5 µg/mL (≈ 1.15 µM).
